Results reported in EP0511033A1, “Extracts of the common lady's mantle, their preparation and their applications” (SYNTHELABO, priority 1991, dated 1992).

Key:
[1] = Superoxide anion scavenging test (NADH/PMS generation, NBT reduction to diformazan, spectrophotometry); type: biochemical; details: for concentration donnant 90 % d'inhibition: 90 % inhibition of diformazan coloration
From the text: On a également testé l'activité anti-radicalaire sur l'anion superoxyde généré par la réaction de NADH (nicotinamide adénine dinucléotide hydrate) sur le PMS (phénazine méthosulfate). L'anion superoxyde provoque la réduction du NBT (Nitrobleu de Tétrazolium) en diformazan, de coloration bleu intense. On dose celui-ci par spectrophotométrie (Roback J., Gryglewski RJ., Biomedical Pharmacology, 1988, 37, (5), P. 837-841). On exprime l'activité anti-radicalaire d'une substance en pourcentage d'inhibition du développement de coloration due au diformazan. Par cette méthode de dosage, les extraits d'Alchemille présentent une activité bien supérieure aux 2 témoins testés, qui sont la quercétine et l'acide rosmarinique. Ainsi, on obtient 90 % d'inhibition avec des concentrations respectivement de 0,5 mg/ml d'acide rosmarinique et de quercétine, alors qu'on atteint ce niveau d'inhibition à une concentration de 0,1 mg/ml d'extrait aqueux d'Alchemille. Cet extrait est donc, dans ces conditions, 5 fois plus actif que les 2 témoins qui sont les plus actifs parmi les substances testées.

[2] = Free radical scavenging test on diphénylpicrylhydrazyl hydrate (decrease of absorbance at 513 nm); type: biochemical
From the text: Les extraits d'Alchemille obtenus selon l'invention présentent également des activités anti-radicalaires. On a démontré ces activités in vitro par deux méthodes de dosage. On a réalisé la première méthode de dosage sur un radical libre : le diphénylpicrylhydrazyl hydrate qui absorbe dans le violet à 513 nm. (Lamaison JL., Petitjean-Freytet C., Carnat P., Carnat A., 1988, Plantes Médicinales et Phytothérapie, 22, (4), p. 231-234). Un composé anti-radicalaire, piégeur des radicaux libres, entraîne une inhibition d'apparition de coloration du radical libre témoin, donc une diminution de la densité optique de ce radical libre. L'activité anti-radicalaire d'une substance s'exprime par la diminution du pourcentage d'absorbance du radical libre testé.Dans ces conditions de test, un extrait d'Alchemille obtenu selon l'invention présente une activité similaire à la vitamine E qui est la substance de référence la plus utilisée.

O=C(/C=C/c1ccc(O)c(O)c1)O[C@H](Cc1ccc(O)c(O)c1)C(=O)O [Acide rosmarinique]
concentration donnant 90 % d'inhibition [1]: 0,5 mg/ml
INHIBITION % ([1]; concentration 0,01 mg/ml): 2%
INHIBITION % ([1]; concentration 0,1 mg/ml): 59%
INHIBITION % ([1]; concentration 0,05 mg/ml): 28%
INHIBITION % ([1]; concentration 0,5 mg/ml): 90%
INHIBITION % ([1]; concentration 1 mg/ml): 99%

O=C(/C=C/c1ccc(O)c(O)c1)OC1CC(OC(=O)/C=C/c2ccc(O)c(O)c2)(C(=O)O)CC(O)C1O (centres unmarked) [Cynarine]
activité anti-radicalaire (comparison in words) ([2]; compared with vitamine E): activité légèrement supérieure à la vitamine E
INHIBITION % ([2]; concentration 0,01 mg/ml): 16%
INHIBITION % ([2]; concentration 0,1 mg/ml): 89%
INHIBITION % ([2]; concentration 0,05 mg/ml): 60%
INHIBITION % ([2]; concentration 0,5 mg/ml): 94%
INHIBITION % ([2]; concentration 1 mg/ml): 96%

O=c1c(O)c(-c2ccc(O)c(O)c2)oc2cc(O)cc(O)c12 [Quercétine]
concentration donnant 90 % d'inhibition [1]: 0,5 mg/ml
INHIBITION % ([1]; concentration 0,01 mg/ml): 1%
INHIBITION % ([1]; concentration 0,1 mg/ml): 69%
INHIBITION % ([1]; concentration 0,05 mg/ml): 31%
INHIBITION % ([1]; concentration 0,5 mg/ml): 91%
INHIBITION % ([1]; concentration 1 mg/ml): 98%

Vitamine E
INHIBITION % ([2]; concentration 0,01 mg/ml): 9%
INHIBITION % ([2]; concentration 0,1 mg/ml): 61%
INHIBITION % ([2]; concentration 0,05 mg/ml): 28%
INHIBITION % ([2]; concentration 0,5 mg/ml): 95%
INHIBITION % ([2]; concentration 1 mg/ml): 96%
